Laboratory results taken from patent US11547694B2, “CXCR4/CXCR7 blockade and treatment of human papilloma virus-associated disease” (priority 2017, dated 2023).

Key:
TC-1 tumor cells = format: in vivo; conditions: C57BL/6 mice with s.c. TC-1 tumors
Source text: Methods. C57BL/6 mice were inoculated with 1×10^5 TC-1 tumor cells subcutaneously into the right flank. When tumors reached approximately 60-70 mm^3 in size, various treatments were initiated. The treatment groups (N=5) consisted of no treatment, administration of an isotype control IgG antibody (clone 2A3, BioXcell), anti-PD-1 monotherapy (clone 29F.1A12, BioXcell), AMD3100 monotherapy (catalog AB120718, AbCam), combination of AMD3100 and anti-PD-1 and combination of AMD3100, anti-PD-1, and an HPV vaccine (See, FIGS. 1, 2, 3, and 4).
The treatment regimen consisted of administration of 0.5 mg/mouse of anti-PD-1 antibody (clone 29F.1A12, BioXcell) or isotype control antibody (clone 2A3, BioXcell) every 5 days for a total of 3 treatments. Prior to each dose of antibody, the mice were treated with 3 mg/kg of AMD3100 (catalog AB120718, AbCam). In addition, a subset of mice were treated with a 1:1 ratio of 20 mcg of HPV E7 peptide vaccine and 20 mcg of poly I:C adjuvant in a total volume of 20 μl, which was administered intratumorally. The tumors were measured twice a week with calipers. When the tumor measured over 2 centimeters in any one direction, the animal was sacrificed according to IACUC policy.

[1] = test system: ovarian preclinical cancer model
CXCR4 = CXCR4 (Homo sapiens, UniProt P61073); conditions: cited from earlier work
mature leukocytes = conditions: administration of AMD3100; cited from earlier work
[2] = 0.01-0.02 mg/kg subcutaneously twice daily for 6 months; phase I clinical trial (Blood 2014; 123(15):2308-16); cited from earlier work

Chain of CXCR4 (P61073 whole entry): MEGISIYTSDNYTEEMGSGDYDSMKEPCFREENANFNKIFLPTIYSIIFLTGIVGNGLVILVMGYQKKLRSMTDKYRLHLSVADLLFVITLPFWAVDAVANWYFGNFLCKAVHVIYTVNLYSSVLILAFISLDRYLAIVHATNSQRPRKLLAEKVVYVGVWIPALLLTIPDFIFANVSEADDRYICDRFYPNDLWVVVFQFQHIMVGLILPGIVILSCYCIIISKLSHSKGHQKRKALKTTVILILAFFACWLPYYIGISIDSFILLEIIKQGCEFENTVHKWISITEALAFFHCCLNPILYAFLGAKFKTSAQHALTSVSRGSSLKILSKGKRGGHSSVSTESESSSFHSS

## c1cc(CN2CCCNCCNCCCNCC2)ccc1CN1CCCNCCNCCCNCC1 [AMD3100]
TC-1 tumor cells; AMD3100 3 mg/kg before each antibody dose, anti-PD-1 0.5 mg/mouse every 5 days x3, HPV E7 peptide vaccine intratumorally, caliper tumor volume
  anti-tumor effect (tumor growth, FIG. 1, FIG. 3): enhanced anti-tumor effect
TC-1 tumor cells; same regimen, Log-rank test
  survival (FIG. 2, FIG. 4): prolonged survival
[1]
  CD8+ T cells: increase
  Treg infiltration: decrease
  anti-tumor effect: enhanced anti-tumor effect
CXCR4
  antagonism of CXCR4: highly specific antagonist of CXCR4
Mature leukocytes
  mobilization of leukocytes into the blood: rapidly mobilize all major subsets of mature leukocytes into the blood
[2]
  safety of long-term, low-dose treatment: demonstrated the safety
